Where two headings read alike, the source gives them in different places.
Assays:
[1] = molecular target: T1, electric eel acetylcholinesterase (eeAChE) (Electrophorus electricus, UniProt O42275); details: previously reported; ref Ristovski et al. [9]; cited from earlier work
T1 construct: purchased Sigma-Aldrich, St. Louis, MO, USA

[2] = molecular target: T2, human recombinant acetylcholinesterase (hrAChE) (Homo sapiens, UniProt P22303); details: previously reported; ref Ristovski et al. [9]; cited from earlier work
T2 construct: purchased Sigma-Aldrich, St. Louis, MO, USA
T2 sequence (P22303 32-614): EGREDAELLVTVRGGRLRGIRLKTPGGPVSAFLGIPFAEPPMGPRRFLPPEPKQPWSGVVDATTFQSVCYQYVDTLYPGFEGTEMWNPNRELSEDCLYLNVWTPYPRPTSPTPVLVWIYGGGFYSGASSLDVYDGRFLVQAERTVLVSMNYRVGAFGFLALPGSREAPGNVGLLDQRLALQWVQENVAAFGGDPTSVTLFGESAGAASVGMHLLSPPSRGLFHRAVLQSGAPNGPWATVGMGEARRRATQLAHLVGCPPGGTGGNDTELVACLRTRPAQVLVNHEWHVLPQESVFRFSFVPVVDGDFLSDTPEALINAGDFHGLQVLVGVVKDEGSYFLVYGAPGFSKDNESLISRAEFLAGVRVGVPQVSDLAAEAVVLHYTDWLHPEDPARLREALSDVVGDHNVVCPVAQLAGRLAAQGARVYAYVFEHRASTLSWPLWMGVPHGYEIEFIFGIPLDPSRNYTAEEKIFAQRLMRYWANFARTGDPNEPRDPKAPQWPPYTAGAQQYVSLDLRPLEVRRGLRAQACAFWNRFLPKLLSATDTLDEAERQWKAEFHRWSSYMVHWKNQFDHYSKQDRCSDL

[3] = molecular target: T3, horse serum butyrylcholinesterase (hsBChE) (Equus caballus, UniProt P81908); details: previously reported; ref Ristovski et al. [9]; cited from earlier work
T3 construct: BChE derived from horse serum; purchased Sigma-Aldrich, St. Louis, MO, USA; host or cells: horse serum
T3 sequence (P81908 whole entry): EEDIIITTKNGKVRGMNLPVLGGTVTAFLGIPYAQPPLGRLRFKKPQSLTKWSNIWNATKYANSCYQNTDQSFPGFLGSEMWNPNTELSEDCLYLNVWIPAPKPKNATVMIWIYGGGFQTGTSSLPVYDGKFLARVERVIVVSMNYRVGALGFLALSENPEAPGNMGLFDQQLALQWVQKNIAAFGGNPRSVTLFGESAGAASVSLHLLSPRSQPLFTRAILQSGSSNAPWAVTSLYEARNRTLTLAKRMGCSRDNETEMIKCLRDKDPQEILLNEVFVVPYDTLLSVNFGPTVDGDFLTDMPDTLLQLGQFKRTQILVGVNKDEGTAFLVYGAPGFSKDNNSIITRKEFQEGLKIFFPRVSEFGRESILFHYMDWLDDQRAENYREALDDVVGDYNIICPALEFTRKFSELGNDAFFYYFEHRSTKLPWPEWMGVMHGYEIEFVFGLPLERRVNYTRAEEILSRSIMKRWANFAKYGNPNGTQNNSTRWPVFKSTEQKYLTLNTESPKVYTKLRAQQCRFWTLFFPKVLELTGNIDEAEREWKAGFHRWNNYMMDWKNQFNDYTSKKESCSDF

[4] = test system: isolated mouse nerve-hemidiaphragm preparation; assay: Muscle contraction recordings on isolated hemidiaphragm
Description: (§1) Mice were sacrificed by cervical dislocation and immediate exsanguination. After dissection of the diaphragm muscle with both phrenic nerves, the diaphragm muscle was cut into two hemidiaphragms. Each hemidiaphragm was maintained in oxygenated standard Krebs-Ringer solution (154 mM NaCl, 5 mM KCl, 2 mM CaCl2, 1 mM MgCl2, 5 mM HEPES, and 11 mM D-glucose; pH 7.4). Just prior to experiments, C1 was dissolved in a solution of 2.5% DMSO in deionized water at a stock concentration of 2 mg/mL. The final concentration of DMSO in the organ bath was always 0.104% v/v. All experiments were performed at room temperature (22–24 °C).
The hemidiaphragm with phrenic nerve was pinned on its lateral side into a silicon-coated organ bath containing oxygenated Krebs-Ringer (K-R) solution. Then, the tendon part was linked to the lever of an isometric mechano-electrical transducer (Grass Instruments, West Warwick, RI, USA) via a stainless-steel hook and silk thread. The equal stimulus protocol, equipment, and software were used as previously described by Ristovski et al.. The concentrations of C1 studied were 30, 60, 90, and 120 μM and their effect on muscle contraction was continuously measured during 60 min after application. The muscle twitch and tetanic contraction blockade produced by C1 was shown as the percentage of the initial maximal response.

[5] = molecular target: canine serum butyrylcholinesterase (csBChE) (Canis lupus familiaris, UniProt A0A8I3PBA0); assay: Cholinesterase inhibition assay (Ellman's method), csBChE; format: biochemical; details: for IC50: Ellman's method, 25 °C, pH 7.4
canine serum butyrylcholinesterase (csBChE), sequence (A0A8I3PBA0 29-602): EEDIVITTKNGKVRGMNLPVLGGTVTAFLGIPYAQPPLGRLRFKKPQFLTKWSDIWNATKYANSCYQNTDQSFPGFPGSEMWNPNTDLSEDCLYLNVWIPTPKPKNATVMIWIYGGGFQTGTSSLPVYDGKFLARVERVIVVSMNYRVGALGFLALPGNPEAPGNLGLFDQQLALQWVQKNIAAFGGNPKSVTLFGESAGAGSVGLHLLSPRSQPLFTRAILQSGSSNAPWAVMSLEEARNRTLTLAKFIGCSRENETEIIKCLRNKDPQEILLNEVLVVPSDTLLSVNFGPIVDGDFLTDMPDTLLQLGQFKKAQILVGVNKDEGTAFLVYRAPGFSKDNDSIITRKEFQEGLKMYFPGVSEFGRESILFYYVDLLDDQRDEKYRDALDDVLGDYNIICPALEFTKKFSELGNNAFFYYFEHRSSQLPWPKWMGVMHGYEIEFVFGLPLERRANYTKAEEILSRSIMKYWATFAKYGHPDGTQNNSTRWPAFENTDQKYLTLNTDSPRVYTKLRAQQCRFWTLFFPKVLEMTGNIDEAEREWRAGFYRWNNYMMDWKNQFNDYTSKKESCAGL
Description: (§2) Cholinesterase activity was measured by Ellman’s method adapted for microtiter plates, as previously described by Ristovski et al.. A complex and its ligands were first screened for the IC50 determination and then the inhibitory constants (Ki) were determined. A stock solution of C1 (1 mg/mL) was prepared in 5% v/v DMSO in deionized water, while a stock solution of chlorido analogue C1′ (1 mg/mL) was prepared in 100% methanol (MeOH). […] These solutions were added to the wells, and gradually diluted in 100 mM of potassium phosphate buffer (pH 7.4) to the final volume of 50 µL. Acetylthiocholine chloride and 5,5′-dithiobis-2-nitrobenzoic acid were then dissolved in the same buffer to the respective final concentrations of 1 and 0.5 mM and added (100 μL) to the wells of the microtiter plates. C1 was screened against a suite of ChEs of human and animal origin (eeAChE, hrAChE, hsBChE) (all three from Sigma-Aldrich, St. Louis, MO, USA), hrBChE (gift from the research group of Professor Stanislav Gobec, Faculty of Pharmacy, University of Ljubljana), and csBChE. All enzymes were dissolved in the 100 mM potassium phosphate buffer (pH 7.4) to 0.0075 U/mL. Fifty μL of each ChE was added to start the reactions, which were followed spectrophotometrically at 405 nm and 25 °C for 5 min using a kinetic microplate reader (Dynex Technologies Inc., Chantilly, VA, USA). The blank reactions without the inhibitors were run with the appropriate dilutions of the solvents, in which the tested compound and positive control were initially diluted (5% aqueous DMSO or 100% MeOH), and the readings were corrected according to the appropriate blanks. […] Each measurement was repeated at least three times. Data were analyzed using OriginPro software (OriginPro 2020, OriginLab Corporation, Northampton, MA, USA).

[6] = molecular target: T2, human recombinant acetylcholinesterase (hrAChE); assay: Cholinesterase inhibition assay (Ellman's method), hrAChE; format: biochemical; details: for IC50: Ellman's method, 25 °C, pH 7.4
Description: as §2

[7] = test system: mouse hemidiaphragm muscle fibers; details: 120 µM; for resting membrane potential (rVm), median: end-plate regions of surface fibers
Description: as §1
Electrophysiological recordings on hemidiaphragm muscle fibers were performed using conventional microelectrode techniques. For measurements of rVm, EPP, and MEPP, hemidiaphragm preparations were immersed in oxygenated K-R solution containing 1.6 μM of μ-conotoxin GIIIB (Bachem, Bubendorf, Switzerland) and incubated for 30 min. The same stimulus protocol, equipment, and software were used to perform membrane potential recordings, as previously described by Ristovski et al.. Only the highest concentration of C1 (120 μM) was studied. The recordings were performed before applying C1, 30 and 60 min after the compound application, and 15 min after the compound wash-out. MEPP and EPP amplitudes were normalized to a rVm of −70 mV using the formula: Vc = Vo (−70)/rVm, where Vc is the normalized amplitude of MEPPs and EPPs, and Vo is their recorded amplitude.

[8] = molecular target: T3, horse serum butyrylcholinesterase (hsBChE); assay: Cholinesterase inhibition assay (Ellman's method), hsBChE; format: biochemical; details: for IC50: Ellman's method, 25 °C, pH 7.4
Description: as §2

[9] = molecular target: T1, electric eel acetylcholinesterase (eeAChE); assay: Cholinesterase inhibition assay (Ellman's method), eeAChE; format: biochemical; details: for IC50: Ellman's method, 25 °C, pH 7.4
Description: as §2

[10] = molecular target: T4, human recombinant butyrylcholinesterase (hrBChE) (Homo sapiens, UniProt P06276); assay: Cholinesterase inhibition assay (Ellman's method), hrBChE; format: biochemical; details: for IC50: Ellman's method, 25 °C, pH 7.4
T4 construct: gift from the research group of Professor Stanislav Gobec, Faculty of Pharmacy, University of Ljubljana
T4 sequence (P06276 29-602): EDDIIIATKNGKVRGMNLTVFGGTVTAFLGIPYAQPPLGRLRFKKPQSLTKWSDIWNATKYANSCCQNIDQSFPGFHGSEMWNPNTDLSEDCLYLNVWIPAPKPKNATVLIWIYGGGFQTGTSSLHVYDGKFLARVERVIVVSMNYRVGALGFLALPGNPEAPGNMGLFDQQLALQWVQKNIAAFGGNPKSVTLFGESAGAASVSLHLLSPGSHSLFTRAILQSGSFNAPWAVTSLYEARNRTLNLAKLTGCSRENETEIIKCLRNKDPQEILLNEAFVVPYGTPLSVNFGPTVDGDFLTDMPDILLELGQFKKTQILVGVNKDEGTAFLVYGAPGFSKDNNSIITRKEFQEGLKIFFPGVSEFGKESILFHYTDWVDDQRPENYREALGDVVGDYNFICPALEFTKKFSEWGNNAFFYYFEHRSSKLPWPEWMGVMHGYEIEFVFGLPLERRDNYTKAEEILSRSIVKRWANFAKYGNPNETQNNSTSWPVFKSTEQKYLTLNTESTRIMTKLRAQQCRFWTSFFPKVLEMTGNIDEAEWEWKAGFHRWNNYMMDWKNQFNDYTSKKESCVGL
Description: as §2

[11] = molecular target: T3, horse serum butyrylcholinesterase (hsBChE); assay: Cholinesterase inhibition assay (Ellman's method), hsBChE; format: biochemical; details: substrate acetylthiocholine 0.125, 0.25, 0.5 mM
[12] = test system: AChE in mouse diaphragm muscle; details: 3 µM; cited from earlier work

T1 sequence (O42275 24-633): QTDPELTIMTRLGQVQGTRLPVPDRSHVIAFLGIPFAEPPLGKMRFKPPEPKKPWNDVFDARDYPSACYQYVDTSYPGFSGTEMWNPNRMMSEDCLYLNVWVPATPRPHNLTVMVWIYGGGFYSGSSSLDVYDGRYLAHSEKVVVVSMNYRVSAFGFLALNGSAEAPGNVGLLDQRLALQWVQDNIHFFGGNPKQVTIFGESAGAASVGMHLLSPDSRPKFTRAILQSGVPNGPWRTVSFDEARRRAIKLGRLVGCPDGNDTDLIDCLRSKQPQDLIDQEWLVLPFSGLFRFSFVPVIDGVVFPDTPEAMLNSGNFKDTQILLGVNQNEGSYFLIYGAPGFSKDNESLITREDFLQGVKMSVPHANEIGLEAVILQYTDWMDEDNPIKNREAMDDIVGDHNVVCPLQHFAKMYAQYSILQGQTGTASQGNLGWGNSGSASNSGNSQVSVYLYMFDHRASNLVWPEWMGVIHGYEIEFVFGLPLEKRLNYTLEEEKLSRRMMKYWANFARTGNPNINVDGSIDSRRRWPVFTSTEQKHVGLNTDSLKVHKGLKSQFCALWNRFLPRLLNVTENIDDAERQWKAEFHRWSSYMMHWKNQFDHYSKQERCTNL

Cc1ccc(C(C)C)cc1.Cc1ccc(C(C)C)cc1.[Cl][Ru][Cl].[Cl][Ru][Cl] [Compound P1, dichloro(p-cymene)ruthenium(II) dimer]
IC50 [1]: > 180 µM
IC50 [2]: > 180 µM
IC50 [3]: 32.7 µM
Ki [3]: 23.3 µM

[(η^6-p-Cymene)Ru(II)(1-hydroxy-3-methoxypyridine-2(1H)-thionato)pta]PF6 [Compound C1]
nerve-evoked single-twitch and tetanic contractions ([4]; 120 µM, 60 min exposure): not statistically significant increases
effect on maximal amplitude of nerve-evoked and directly elicited single-twitch and tetanic contractions ([4]; 30, 60, 90 and 120 µM, 60 min exposure): no significant effect
resting muscle tension ([4]; 30-120 µM, an increase would indicate a myotoxic effect): did not detect an increase
IC50 [5]: > 180 µM
inhibition of csBChE (in words) ([5]; concentrations (0–180 µM) tested): did not inhibit
inhibition of hrAChE (in words) [6]: did not inhibit
IC50 [6]: > 180 µM
resting membrane potential (rVm), median ([7]; 30 min after exposure): −66.13 mV
resting membrane potential (rVm), median ([7]; 60 min after exposure): −66.63 mV
effect on resting membrane potential (rVm) ([7]; after 30 and 60 min of exposure): no effect
MEPPs frequency ([7]; within 60 min): without reducing
amplitudes of EPPs ([7]; within 60 min): did not affect
amplitudes of MEPPs ([7]; within 60 min): significantly decreased
half-decay time of EPPs ([7]; within 60 min of exposure): shortened
half-decay time of MEPPs ([7]; within 60 min of exposure): shortened
inhibition of hsBChE (in words) [8]: selectively inhibited
type of inhibition of hsBChE [8]: reversible competitive type
IC50 [8]: 2.88 µM
inhibition of eeAChE (in words) [9]: did not inhibit
IC50 [9]: > 180 µM
IC50 [10]: 144 µM
inhibition of hrBChE lower compared to hsBChE ([10]; ratio of IC50 hrBChE versus hsBChE): about 50 times
Ki [11]: 1.33 µM

CN(C)C(=O)Oc1cccc([N+](C)(C)C)c1 [Neostigmine, neostigmine methyl sulphate, reference compound]
effect on nerve-evoked single-muscle and tetanic contraction ([4]; 3 µM, positive control): a slight increase in the amplitude of the nerve-evoked single-muscle contraction and a tetanic fade
IC50 [5]: 28.4 µM
inhibition of AChE in mouse diaphragm muscle [12]: 96%
IC50 [8]: 62.8 µM
IC50 [9]: 3.9 µM
IC50 [10]: 174 µM

[(η^6-p-Cymene)Ru(II)(1-hydroxy-3-methoxypyridine-2(1H)-thionato)Cl] [C1′]
inhibition of csBChE (in words) [5]: low micromolar range
type of inhibition of csBChE [5]: reversible competitive type
IC50 [5]: 2.27 µM
Ki ([5]; substrate 0.125, 0.25, 0.5 mM): 3 µM
inhibition of hrAChE (in words) [6]: low micromolar range
type of inhibition of hrAChE [6]: reversible competitive type
IC50 [6]: 5.04 µM
Ki ([6]; substrate 0.125, 0.25, 0.5 mM): 5.35 µM
inhibition of hsBChE (in words) [8]: low micromolar range
type of inhibition of hsBChE [8]: reversible competitive type
IC50 [8]: 2.34 µM
inhibition of eeAChE (in words) [9]: low micromolar range
type of inhibition of eeAChE [9]: reversible competitive type
IC50 [9]: 7.5 µM
Ki ([9]; substrate 0.125, 0.25, 0.5 mM): 4.8 µM
inhibition of hrBChE (in words) [10]: low micromolar range
type of inhibition of hrBChE [10]: reversible competitive type
IC50 [10]: 1.29 µM
Ki ([10]; substrate 0.125, 0.25, 0.5 mM): 1.25 µM
Ki [11]: 3.4 µM

COc1cccn(O)c1=S [Compound L1, 1-hydroxy-3-methoxypyridine-2(1H)-thion]
inhibition of csBChE (in words) [5]: did not inhibit
IC50 [5]: > 180 µM
inhibition of hrAChE (in words) [6]: did not inhibit
IC50 [6]: > 180 µM
inhibition of hsBChE (in words) [8]: did not inhibit
IC50 [8]: > 180 µM
inhibition of eeAChE (in words) [9]: did not inhibit
IC50 [9]: > 180 µM
inhibition of hrBChE (in words) [10]: did not inhibit
IC50 [10]: > 180 µM

— article PMC9916964 (International Journal of Molecular Sciences, 2023)
